Source: US7915259B2, “Diazabicyclononene derivatives and use thereof” (priority 2005, dated 2011)

Assays:
[1] = molecular target: T1, recombinant human renin (Homo sapiens, UniProt P00797); experiment: Primary renin inhibition assay: IC50 in buffer, 384 well MTP (Ang I EIA readout); assay type: biochemical
T1 sequence (P00797 67-406): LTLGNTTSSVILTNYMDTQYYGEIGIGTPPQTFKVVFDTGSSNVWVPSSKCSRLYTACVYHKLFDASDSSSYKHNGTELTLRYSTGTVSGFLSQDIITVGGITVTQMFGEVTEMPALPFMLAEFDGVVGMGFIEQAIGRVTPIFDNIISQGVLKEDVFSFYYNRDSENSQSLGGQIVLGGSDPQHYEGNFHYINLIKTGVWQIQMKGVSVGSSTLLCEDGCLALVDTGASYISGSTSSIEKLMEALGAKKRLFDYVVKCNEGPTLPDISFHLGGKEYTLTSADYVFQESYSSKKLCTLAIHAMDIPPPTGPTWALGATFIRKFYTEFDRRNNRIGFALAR
Experimental: 1. Enzyme Immuno Assay (EIA) to Estimate Ang I Accumulation and Renin Inhibition
1.1 Preparation of Ang I-BSA Conjugate
1.3 mg (1 μmol) of Ang I [1-10 (Bachem, H-1680)] and 17 mg (0.26 μmol) of BSA (Fluka, 05475) were dissolved in 4 mL of 0.1M phosphate buffer, pH 7.4, after which 2 mL of a 1:100 dilution of glutaraldehyde in H2O (Sigma G-5882) was added dropwise. The mixture was incubated overnight at 4° C., then dialyzed against 2 liters of 0.9% NaCl, twice for 4 h at rt, followed by dialysis against 2 liters of PBS 1× overnight at rt. The solution was then filtered with a Syringe filter, 0.45 μm (Nalgene, Cat. No. 194-2545). The conjugate can be stored in polypropylene tubes in 0.05% sodium azide at 4° C. for at least 12 months.
1.2 Preparation of BSA-Ang I Coated MTP […]
The renin assay was adapted from an assay described before (Fischli W. et al., Hypertension, 1991, 18:22-31) and consists of two steps: in the first step, recombinant human renin is incubated with its substrate (commercial human tetradecapeptide renin substrate) to create the product Angiotensin I (Ang I). In the second step, the accumulated Ang I is measured by an immunological assay (enzyme immuno assay, EIA). […]

[2] = test system: double transgenic rats with human renin and human angiotensinogen; experiment: Hemodynamic measurements (telemetry method) in hypertensive double transgenic rats; assay type: in vivo, rat; details: female double transgenic rats
Experimental: Hemodynamic Measurements (Telemetry Method)
Animals—Female double transgenic rats with human renin and human angiotensinogen were purchased from RCC Ltd, Füllingsdorf, Switzerland. All animals were maintained under identical conditions and had free access to normal pelleted rat chow and water. Rats were initially treated with enalapril (1 mg/kg/day) during 2 months. After approximately two weeks following cessation of enalapril treatment the double transgenic rats become hypertensive and reach mean arterial blood pressures in the range of 160-170 mmHg.
Transmitter implantation—The rats were anaesthetised with a mixture of 90 mg/kg Ketamin-HCl (Ketavet, Parke-Davis, Berlin FRG) and 10 mg/kg xylazin (Rompun, Bayer, Leverkusen, FRG) i.p. The pressure transmitter was implanted under aseptic conditions into the peritoneal cavity with the sensing catheter placed in the descending aorta below the renal arteries pointing upstream. The transmitter was sutured to the abdominal musculature and the skin closed.
Telemetry-System—Telemetry units were obtained from Data Sciences (St. Paul, Minn.). […] The tip of the catheter was filled with a viscous gel that prevents blood reflux and was coated with an antithrombogenic film to inhibit thrombus formation. The implants (length=2.5 cm, diameter=1.2 cm) weighted 9 g and have a typical battery life of 6 months. A receiver platform (RPC-1, Data Sciences) connected the radio signal to digitized input that was sent to a dedicated personal computer (Compaq, deskpro). Arterial pressures were calibrated by using an input from an ambient-pressure reference (APR-1, Data Sciences). Systolic, mean and diastolic blood pressure was expressed in millimeter of mercury (mmHg).
[…] The effect of the test substance is expressed as maximal decrease of mean arterial pressure (MAP) in the treated group versus the control group.

## Cc1cc(Cl)c(OCCOc2ccc(C3=C(C(=O)N(Cc4cccc(C)c4C)C4CC4)[C@H]4CNC[C@@H](C3)N4)cc2)c(Cl)c1 [Compound (I′), (1R,5S)-7-{4-[2-(2,6-dichloro-4-methylphenoxy)ethoxy]-phenyl}-3,9-diazabicyclo[3.3.1]non-6-ene-6-carboxylic acid cyclopropyl-(2,3-dimethylbenzyl)amide]
[1]
  IC50: 0.3 nM
[2]; oral
  activity in the animal model: active
[2]; single oral dose of 3 mg/kg
  blood pressure decrease (maximal decrease of mean arterial pressure vs control group): 17 mmHg
[2]; single oral dose of 10 mg/kg
  blood pressure decrease (maximal decrease of mean arterial pressure vs control group): 30 mmHg
